Experimental findings from patent US7211585B2, “5-HT7 receptor antagonists” (Laboratorios del Dr. Esteve, S.A., priority 2004, dated 2007) are described below.

Counter-ions that a name gives are not always drawn.

In this assay the target is T1, Cloned Human Serotonin Receptor, subtype 7 (h5HT7) (Homo sapiens, UniProt P34969).
T1 construct: purchased PerkinElmer 6120512; host or cells: CHO cells (membranes coated on Basic FlashPlate, Cat. SMP200)
T1 sequence (P34969 whole entry): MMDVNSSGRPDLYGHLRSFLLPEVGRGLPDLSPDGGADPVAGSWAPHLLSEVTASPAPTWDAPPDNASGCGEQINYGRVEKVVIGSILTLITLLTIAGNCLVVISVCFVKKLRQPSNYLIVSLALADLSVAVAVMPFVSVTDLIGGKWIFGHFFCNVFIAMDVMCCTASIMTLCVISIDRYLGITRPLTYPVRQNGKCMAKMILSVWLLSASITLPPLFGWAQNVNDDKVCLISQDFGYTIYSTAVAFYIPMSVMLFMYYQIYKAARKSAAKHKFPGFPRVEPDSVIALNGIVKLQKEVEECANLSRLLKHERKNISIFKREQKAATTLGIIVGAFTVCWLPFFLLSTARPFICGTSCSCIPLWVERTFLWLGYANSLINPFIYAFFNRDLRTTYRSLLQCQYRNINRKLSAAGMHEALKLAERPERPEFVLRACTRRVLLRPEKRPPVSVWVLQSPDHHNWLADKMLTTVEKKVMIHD
The experiment in a line: Radioligand binding assay, cloned human 5-HT7 receptor in CHO cells, [125I]LSD, Flashplate. Conditions: h5HT7 expressed in CHO cells; [125I]LSD 0.82 nM; triplicate determinations; read-out: 5-HT7 IC-50. Here is the method:
Biological Assays Radioligand Binding
Radioligand binding assays were performed using the Cloned Human Serotonin Receptor, subtype 7 (h5HT7), expressed in CHO cells, coated on Flashplate (Basic FlashPlate Cat.: SMP200) from PerkinElmer (Cat.: 6120512). The protocol assay was essentially the recommended protocol in the Technical Data Sheet by PerkinEmer Life and Analytical Sciences. The Mass membrane protein/well was typically 12 μg and the Receptor/well was about 9–10 fmoles. The Flashplate were let equilibrate at room temperature for one hour before the addition of the components of the assay mixture. The binding buffer was: 50 mM Trish-CHl, pH 7.4, containing 10 mM MgCl2, 0.5 mM EDTA and 0.5% BSA. The radioligand was [^125I]LSD at a final concentration of 0.82 nM. Nonspecific binding was determined with 50 μM of Clozapine. The assay volume was 25 μl. TopSeal-A were applied onto Flashplate microplates and they were incubated at room temperature for 240 minutes in darkness. The radioactivity were quantified by liquid scintillation spectrophotometry (Wallac 1450 Microbeta Trilux) with a count delay of 4 minutes prior to counting and a counting time of 30 seconds per well. Competition binding data were analyzed by using the LIGAND program (Munson and Rodbard, LIGAND: A versatile, computerized approach for characterization of ligand-binding systems. Anal. Biochem. 107: 220–239, 1980) and assays were performed in triplicate determinations for each point.
In the case of `O=S(=O)(NCCCCN1CCc2ccccc2C1)c1ccc2ccccc2c1` [Compound 2, Naphthalene-2-sulfonic acid [4-(3,4-dihydro-1H-isoquinolin-2-yl)-butyl]-amide hydrochloride], the IC50 is 59.2 nM.

`O=S(=O)(NCCCCN1CCc2ccccc2C1)c1ccccc1` [Compound 5, N-[4-(3,4-Dihydro-1H-isoquinolin-2-yl)-butyl]-benzenesulfonamidehydrochloride]: the IC50 turned out to be 33.2 nM.

For `COc1cc2c(cc1OC)CN(CCCCNS(=O)(=O)c1cc(Cl)c(F)cc1F)CC2` [Compound 116, 5-Chloro-N-[4-(6,7-dimethoxy-3,4-dihydro-1H-isoquinolin-2-yl)-butyl]-2,4-difluoro-benzenesulfonamide], the IC50 was determined as 31.1 nM.

With `COc1cc2c(cc1OC)CN(CCCCNS(=O)(=O)c1ccccc1Cl)CC2` [Compound 118, 2-Chloro-N-[4-(6,7-dimethoxy-3,4-dihydro-1H-isoquinolin-2-yl)-butyl]-benzenesulfonamidehydrochloride], the IC50 stood at 39.2 nM.

With `O=S(=O)(NCCCCN1CCc2ccccc2C1)c1cc(F)ccc1F` [Compound 140, N-[4-(3,4-Dihydro-1H-isoquinolin-2-yl)-butyl]-2,5-difluoro-benzenesulfonamidehydrochloride], the IC50 stood at 60.8 nM.

`O=S(=O)(NCCCCN1CCc2ccccc2C1)c1cc(F)c(F)cc1F` [Compound 142, N-[4-(3,4-Dihydro-1H-isoquinolin-2-yl)-butyl]-2,4,5-trifluoro-benzenesulfonamidehydrochloride]: the IC50 is 80.4 nM.

For `COc1cc2c(cc1OC)CN(CCCCNS(=O)(=O)c1cc(F)c(F)cc1Cl)CC2` [Compound 151, 2-Chloro-N-[4-(6,7-dimethoxy-3,4-dihydro-1H-isoquinolin-2-yl)-butyl]-4,5-difluoro-benzenesulfonamidehydrochloride], the IC50 turned out to be 39 nM.

For the molecule `O=S(=O)(NCCCCN1CCc2ccccc2C1)c1c(F)cc(F)cc1Br` [Compound 160, 2-Bromo-N-[4-(3,4-dihydro-1H-isoquinolin-2-yl)-butyl]-4,6-difluoro-benzenesulfonamidehydrochloride], the IC50 came out at 74.4 nM.

`COc1cc2c(cc1OC)CN(CCCCNS(=O)(=O)c1cccc(C)c1)CC2` [Compound 210, N-[4-(6,7-Dimethoxy-3,4-dihydro-1H-isoquinolin-2-yl)-butyl]-3-methyl-benzenesulfonamidehydrochloride]: the IC50 amounted to 37.3 nM.

Regarding `COc1cc2c(cc1OC)CN(CCCCNS(=O)(=O)c1cc(C)c(Cl)cc1C)CC2` [Compound 220, 4-Chloro-N-[4-(6,7-dimethoxy-3,4-dihydro-1H-isoquinolin-2-yl)-butyl]-2,5-dimethyl-benzenesulfonamidehydrochloride], the IC50 worked out at 67.4 nM.

In the case of `COc1ccc(OC)c(S(=O)(=O)NCCCCN2CCc3cc(OC)c(OC)cc3C2)c1` [Compound 235, N-[4-(6,7-Dimethoxy-3,4-dihydro-1H-isoquinolin-2-yl)-butyl]-2,5-dimethoxy-benzenesulfonamidehydrochloride], the IC50 worked out at 68.4 nM.

Consider `COc1cc2c(cc1OC)CN(CCCCNS(=O)(=O)c1ccccc1Br)CC2` [Compound 257, 2-Bromo-N-[4-(6,7-dimethoxy-3,4-dihydro-1H-isoquinolin-2-yl)-butyl]-benzenesulfonamidehydrochloride], for which the IC50 was found to be 57.2 nM.
